Results reported in ChEMBL document CHEMBL4507263, “Data for DCP probe BAY-474” (2021).

Tests used:
[1] = target: Aurora kinase A (Homo sapiens) (UniProt O14965); assay: Aurora-A( h) Millipore kinase activity assay; conditions: Compound concentration 1.0 uM
[2] = target: Insulin receptor-related protein (Homo sapiens) (UniProt P14616); assay: IRR (h) Millipore kinase activity assay; conditions: Compound concentration 1.0 uM
[3] = target: Serine/threonine-protein kinase MARK2 (Homo sapiens) (UniProt Q7KZI7); assay: PAR-1Balpha (h) Millipore kinase activity assay; conditions: Compound concentration 1.0 uM
Chain of Serine/threonine-protein kinase MARK2 (Homo sapiens) (Q7KZI7 whole entry): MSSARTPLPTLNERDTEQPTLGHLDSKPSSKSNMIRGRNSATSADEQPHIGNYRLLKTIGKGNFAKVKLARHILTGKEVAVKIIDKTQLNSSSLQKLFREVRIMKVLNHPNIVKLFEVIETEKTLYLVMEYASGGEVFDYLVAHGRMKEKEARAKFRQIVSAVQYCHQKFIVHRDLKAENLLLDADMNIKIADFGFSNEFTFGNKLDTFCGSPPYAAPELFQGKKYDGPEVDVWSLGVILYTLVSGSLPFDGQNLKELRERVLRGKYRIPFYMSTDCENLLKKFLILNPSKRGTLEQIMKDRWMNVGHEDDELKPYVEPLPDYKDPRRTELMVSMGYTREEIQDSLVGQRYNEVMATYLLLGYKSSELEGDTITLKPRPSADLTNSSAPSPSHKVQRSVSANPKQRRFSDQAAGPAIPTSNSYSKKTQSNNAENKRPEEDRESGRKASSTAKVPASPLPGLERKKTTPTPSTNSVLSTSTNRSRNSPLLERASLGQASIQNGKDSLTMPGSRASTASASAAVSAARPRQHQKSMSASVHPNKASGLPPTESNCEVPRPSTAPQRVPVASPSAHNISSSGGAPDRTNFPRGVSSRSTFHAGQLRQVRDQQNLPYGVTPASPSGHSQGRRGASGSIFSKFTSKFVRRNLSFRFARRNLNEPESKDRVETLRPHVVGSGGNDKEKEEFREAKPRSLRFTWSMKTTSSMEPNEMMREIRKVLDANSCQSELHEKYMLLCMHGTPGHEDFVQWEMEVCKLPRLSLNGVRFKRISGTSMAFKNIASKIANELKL

[4] = target: Serine/threonine-protein kinase pim-1 (Homo sapiens) (UniProt P11309); assay: Pim-1 (h) Millipore kinase activity assay; conditions: Compound concentration 1.0 uM
[5] = target: Serine/threonine-protein kinase N2 (Homo sapiens) (UniProt Q16513); assay: PRK2 (h) Millipore kinase activity assay; conditions: Compound concentration 1.0 uM
Chain of Serine/threonine-protein kinase N2 (Homo sapiens) (Q16513 whole entry, looked up): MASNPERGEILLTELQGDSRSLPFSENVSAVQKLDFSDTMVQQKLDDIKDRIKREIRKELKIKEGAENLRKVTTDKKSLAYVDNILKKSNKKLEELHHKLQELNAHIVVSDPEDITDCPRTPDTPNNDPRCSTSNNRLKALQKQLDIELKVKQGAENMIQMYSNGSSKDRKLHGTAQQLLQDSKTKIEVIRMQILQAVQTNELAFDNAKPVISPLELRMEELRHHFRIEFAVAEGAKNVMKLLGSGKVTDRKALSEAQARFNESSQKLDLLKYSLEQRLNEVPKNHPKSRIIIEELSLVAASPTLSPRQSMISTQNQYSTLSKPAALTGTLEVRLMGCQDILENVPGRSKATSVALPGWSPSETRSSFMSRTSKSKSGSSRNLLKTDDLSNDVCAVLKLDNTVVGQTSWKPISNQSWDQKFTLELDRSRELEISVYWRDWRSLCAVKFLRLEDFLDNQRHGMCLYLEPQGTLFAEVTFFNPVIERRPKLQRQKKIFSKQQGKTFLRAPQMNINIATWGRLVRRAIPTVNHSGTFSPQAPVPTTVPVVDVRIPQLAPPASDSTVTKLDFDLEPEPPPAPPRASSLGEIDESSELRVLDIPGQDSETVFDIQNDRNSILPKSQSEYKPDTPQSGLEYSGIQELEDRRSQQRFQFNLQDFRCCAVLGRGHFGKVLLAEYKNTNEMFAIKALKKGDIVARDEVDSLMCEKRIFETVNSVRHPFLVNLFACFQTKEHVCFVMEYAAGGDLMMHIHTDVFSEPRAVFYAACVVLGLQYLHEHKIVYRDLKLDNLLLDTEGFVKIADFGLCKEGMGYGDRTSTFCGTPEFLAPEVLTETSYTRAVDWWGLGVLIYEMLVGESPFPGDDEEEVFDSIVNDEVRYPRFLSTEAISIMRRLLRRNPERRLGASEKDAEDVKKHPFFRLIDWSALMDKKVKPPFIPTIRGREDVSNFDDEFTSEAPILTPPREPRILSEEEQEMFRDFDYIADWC

[6] = target: Histamine H3 receptor (Homo sapiens) (UniProt Q9Y5N1); conditions: Compound concentration 10.0 uM
[7] = target: T1, Muscarinic acetylcholine receptor M1 (Homo sapiens) (UniProt P11229); conditions: Compound concentration 10.0 uM
T1 sequence (whole entry): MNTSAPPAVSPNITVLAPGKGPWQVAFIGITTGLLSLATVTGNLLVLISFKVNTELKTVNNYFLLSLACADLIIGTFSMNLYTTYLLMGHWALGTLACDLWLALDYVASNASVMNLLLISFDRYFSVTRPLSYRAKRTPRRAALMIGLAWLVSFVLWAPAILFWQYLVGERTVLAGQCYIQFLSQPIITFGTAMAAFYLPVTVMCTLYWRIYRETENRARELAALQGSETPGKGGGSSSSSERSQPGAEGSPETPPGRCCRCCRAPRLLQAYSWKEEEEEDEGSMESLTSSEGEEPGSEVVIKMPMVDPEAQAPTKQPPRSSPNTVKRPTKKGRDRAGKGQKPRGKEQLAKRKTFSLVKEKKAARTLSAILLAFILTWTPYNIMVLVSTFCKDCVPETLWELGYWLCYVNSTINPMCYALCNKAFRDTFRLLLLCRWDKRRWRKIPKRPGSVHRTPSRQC

[8] = target: Delta-type opioid receptor (Homo sapiens) (UniProt P41143); conditions: Compound concentration 10.0 uM
[9] = system: Tyrosine-protein kinase ABL1 (Homo sapiens), P00519 [F317I]; conditions: Compound concentration 1000.0 nM
[10] = system: Tyrosine-protein kinase ABL1 (Homo sapiens), P00519 [Y253F]; conditions: Compound concentration 1000.0 nM
[11] = system: ALK tyrosine kinase receptor (Homo sapiens), Q9UM73 [C1156Y]; conditions: Compound concentration 1000.0 nM
[12] = system: ALK tyrosine kinase receptor (Homo sapiens), Q9UM73 [L1196M]; conditions: Compound concentration 1000.0 nM
[13] = target: Mitogen-activated protein kinase kinase kinase 6 (Homo sapiens) (UniProt O95382); conditions: Compound concentration 1000.0 nM
[14] = target: Aurora kinase C (Homo sapiens) (UniProt Q9UQB9); conditions: Compound concentration 1000.0 nM
Chain of Aurora kinase C (Homo sapiens) (Q9UQB9 whole entry): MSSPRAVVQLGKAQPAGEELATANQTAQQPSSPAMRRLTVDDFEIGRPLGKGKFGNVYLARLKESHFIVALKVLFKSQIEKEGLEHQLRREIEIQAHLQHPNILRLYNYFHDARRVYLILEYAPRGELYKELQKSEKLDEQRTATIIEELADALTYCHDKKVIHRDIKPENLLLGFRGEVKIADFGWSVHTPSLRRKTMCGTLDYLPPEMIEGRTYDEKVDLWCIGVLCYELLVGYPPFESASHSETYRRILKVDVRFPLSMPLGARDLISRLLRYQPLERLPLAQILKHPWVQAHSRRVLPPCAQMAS

[15] = target: Bone morphogenetic protein receptor type-1B (Homo sapiens) (UniProt O00238); conditions: Compound concentration 1000.0 nM
[16] = target: Serine/threonine-protein kinase B-raf (Homo sapiens) (UniProt P15056); conditions: Compound concentration 1000.0 nM
[17] = target: Calcium/calmodulin-dependent protein kinase type 1 (Homo sapiens) (UniProt Q14012); conditions: Compound concentration 1000.0 nM
[18] = target: Calcium/calmodulin-dependent protein kinase kinase 2 (Homo sapiens) (UniProt Q96RR4); conditions: Compound concentration 1000.0 nM
[19] = target: Peripheral plasma membrane protein CASK (Homo sapiens) (UniProt O14936); conditions: Compound concentration 1000.0 nM
[20] = target: Cyclin-dependent kinase 11A (Homo sapiens) (UniProt Q9UQ88); conditions: Compound concentration 1000.0 nM
[21] = target: Dual specificity protein kinase CLK4 (Homo sapiens) (UniProt Q9HAZ1); conditions: Compound concentration 1000.0 nM
[22] = target: Death-associated protein kinase 1 (Homo sapiens) (UniProt P53355); conditions: Compound concentration 1000.0 nM
[23] = target: Receptor tyrosine-protein kinase erbB-4 (Homo sapiens) (UniProt Q15303); conditions: Compound concentration 1000.0 nM
[24] = system: Receptor-type tyrosine-protein kinase FLT3 (Homo sapiens), P36888 [UNDEFINED MUTATION]; conditions: Compound concentration 1000.0 nM
[25] = system: Receptor-type tyrosine-protein kinase FLT3 (Homo sapiens), P36888 [UNDEFINED MUTATION]; conditions: Compound concentration 1000.0 nM; remark: listed apart in the source
[26] = system: Receptor-type tyrosine-protein kinase FLT3 (Homo sapiens), P36888 [R834Q]; conditions: Compound concentration 1000.0 nM
[27] = target: Rhodopsin kinase GRK7 (Homo sapiens) (UniProt Q8WTQ7); conditions: Compound concentration 1000.0 nM
[28] = target: Tyrosine-protein kinase HCK (Homo sapiens) (UniProt P08631); conditions: Compound concentration 1000.0 nM
[29] = target: Inhibitor of nuclear factor kappa-B kinase subunit epsilon (Homo sapiens) (UniProt Q14164); conditions: Compound concentration 1000.0 nM
[30] = target: MAP kinase-interacting serine/threonine-protein kinase 1 (Homo sapiens) (UniProt Q9BUB5); conditions: Compound concentration 1000.0 nM
[31] = target: Mitogen-activated protein kinase kinase kinase 10 (Homo sapiens) (UniProt Q02779); conditions: Compound concentration 1000.0 nM
[32] = target: Serine/threonine-protein kinase PAK 5 (Homo sapiens) (UniProt Q9P286); conditions: Compound concentration 1000.0 nM
Chain of Serine/threonine-protein kinase PAK 5 (Homo sapiens) (Q9P286 whole entry, looked up): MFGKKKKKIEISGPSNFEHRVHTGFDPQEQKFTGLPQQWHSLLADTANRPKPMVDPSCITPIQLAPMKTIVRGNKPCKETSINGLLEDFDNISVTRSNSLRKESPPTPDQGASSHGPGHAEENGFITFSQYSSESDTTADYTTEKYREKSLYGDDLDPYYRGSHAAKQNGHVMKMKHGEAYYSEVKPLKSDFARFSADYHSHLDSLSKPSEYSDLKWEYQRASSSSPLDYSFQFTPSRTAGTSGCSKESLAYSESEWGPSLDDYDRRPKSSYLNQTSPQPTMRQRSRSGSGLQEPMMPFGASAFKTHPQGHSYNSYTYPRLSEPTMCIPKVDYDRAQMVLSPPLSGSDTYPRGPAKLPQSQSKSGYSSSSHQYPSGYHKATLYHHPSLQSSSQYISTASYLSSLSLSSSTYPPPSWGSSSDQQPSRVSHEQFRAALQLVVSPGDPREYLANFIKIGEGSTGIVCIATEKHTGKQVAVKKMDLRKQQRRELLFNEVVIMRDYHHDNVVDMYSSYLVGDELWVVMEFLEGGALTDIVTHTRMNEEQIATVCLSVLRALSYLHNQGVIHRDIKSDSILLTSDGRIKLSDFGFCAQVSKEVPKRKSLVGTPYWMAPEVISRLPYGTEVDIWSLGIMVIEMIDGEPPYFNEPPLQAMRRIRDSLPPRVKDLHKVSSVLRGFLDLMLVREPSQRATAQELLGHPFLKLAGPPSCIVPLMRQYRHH

[33] = target: Cyclin-dependent kinase 15 (Homo sapiens) (UniProt Q96Q40); conditions: Compound concentration 1000.0 nM
[34] = target: Phosphorylase b kinase regulatory subunit alpha, liver isoform (Homo sapiens) (UniProt P46019); conditions: Compound concentration 1000.0 nM
[35] = target: Phosphatidylinositol 5-phosphate 4-kinase type-2 gamma (Homo sapiens) (UniProt Q8TBX8); conditions: Compound concentration 1000.0 nM
[36] = target: SNF-related serine/threonine-protein kinase (Homo sapiens) (UniProt Q9NRH2); conditions: Compound concentration 1000.0 nM
[37] = target: Tyrosine-protein kinase Tec (Homo sapiens) (UniProt P42680); conditions: Compound concentration 1000.0 nM
[38] = target: Serine/threonine-protein kinase tousled-like 2 (Homo sapiens) (UniProt Q86UE8); conditions: Compound concentration 1000.0 nM
[39] = target: Serine/threonine-protein kinase WNK2 (Homo sapiens) (UniProt Q9Y3S1); conditions: Compound concentration 1000.0 nM
Chain of Serine/threonine-protein kinase WNK2 (Homo sapiens) (Q9Y3S1 whole entry): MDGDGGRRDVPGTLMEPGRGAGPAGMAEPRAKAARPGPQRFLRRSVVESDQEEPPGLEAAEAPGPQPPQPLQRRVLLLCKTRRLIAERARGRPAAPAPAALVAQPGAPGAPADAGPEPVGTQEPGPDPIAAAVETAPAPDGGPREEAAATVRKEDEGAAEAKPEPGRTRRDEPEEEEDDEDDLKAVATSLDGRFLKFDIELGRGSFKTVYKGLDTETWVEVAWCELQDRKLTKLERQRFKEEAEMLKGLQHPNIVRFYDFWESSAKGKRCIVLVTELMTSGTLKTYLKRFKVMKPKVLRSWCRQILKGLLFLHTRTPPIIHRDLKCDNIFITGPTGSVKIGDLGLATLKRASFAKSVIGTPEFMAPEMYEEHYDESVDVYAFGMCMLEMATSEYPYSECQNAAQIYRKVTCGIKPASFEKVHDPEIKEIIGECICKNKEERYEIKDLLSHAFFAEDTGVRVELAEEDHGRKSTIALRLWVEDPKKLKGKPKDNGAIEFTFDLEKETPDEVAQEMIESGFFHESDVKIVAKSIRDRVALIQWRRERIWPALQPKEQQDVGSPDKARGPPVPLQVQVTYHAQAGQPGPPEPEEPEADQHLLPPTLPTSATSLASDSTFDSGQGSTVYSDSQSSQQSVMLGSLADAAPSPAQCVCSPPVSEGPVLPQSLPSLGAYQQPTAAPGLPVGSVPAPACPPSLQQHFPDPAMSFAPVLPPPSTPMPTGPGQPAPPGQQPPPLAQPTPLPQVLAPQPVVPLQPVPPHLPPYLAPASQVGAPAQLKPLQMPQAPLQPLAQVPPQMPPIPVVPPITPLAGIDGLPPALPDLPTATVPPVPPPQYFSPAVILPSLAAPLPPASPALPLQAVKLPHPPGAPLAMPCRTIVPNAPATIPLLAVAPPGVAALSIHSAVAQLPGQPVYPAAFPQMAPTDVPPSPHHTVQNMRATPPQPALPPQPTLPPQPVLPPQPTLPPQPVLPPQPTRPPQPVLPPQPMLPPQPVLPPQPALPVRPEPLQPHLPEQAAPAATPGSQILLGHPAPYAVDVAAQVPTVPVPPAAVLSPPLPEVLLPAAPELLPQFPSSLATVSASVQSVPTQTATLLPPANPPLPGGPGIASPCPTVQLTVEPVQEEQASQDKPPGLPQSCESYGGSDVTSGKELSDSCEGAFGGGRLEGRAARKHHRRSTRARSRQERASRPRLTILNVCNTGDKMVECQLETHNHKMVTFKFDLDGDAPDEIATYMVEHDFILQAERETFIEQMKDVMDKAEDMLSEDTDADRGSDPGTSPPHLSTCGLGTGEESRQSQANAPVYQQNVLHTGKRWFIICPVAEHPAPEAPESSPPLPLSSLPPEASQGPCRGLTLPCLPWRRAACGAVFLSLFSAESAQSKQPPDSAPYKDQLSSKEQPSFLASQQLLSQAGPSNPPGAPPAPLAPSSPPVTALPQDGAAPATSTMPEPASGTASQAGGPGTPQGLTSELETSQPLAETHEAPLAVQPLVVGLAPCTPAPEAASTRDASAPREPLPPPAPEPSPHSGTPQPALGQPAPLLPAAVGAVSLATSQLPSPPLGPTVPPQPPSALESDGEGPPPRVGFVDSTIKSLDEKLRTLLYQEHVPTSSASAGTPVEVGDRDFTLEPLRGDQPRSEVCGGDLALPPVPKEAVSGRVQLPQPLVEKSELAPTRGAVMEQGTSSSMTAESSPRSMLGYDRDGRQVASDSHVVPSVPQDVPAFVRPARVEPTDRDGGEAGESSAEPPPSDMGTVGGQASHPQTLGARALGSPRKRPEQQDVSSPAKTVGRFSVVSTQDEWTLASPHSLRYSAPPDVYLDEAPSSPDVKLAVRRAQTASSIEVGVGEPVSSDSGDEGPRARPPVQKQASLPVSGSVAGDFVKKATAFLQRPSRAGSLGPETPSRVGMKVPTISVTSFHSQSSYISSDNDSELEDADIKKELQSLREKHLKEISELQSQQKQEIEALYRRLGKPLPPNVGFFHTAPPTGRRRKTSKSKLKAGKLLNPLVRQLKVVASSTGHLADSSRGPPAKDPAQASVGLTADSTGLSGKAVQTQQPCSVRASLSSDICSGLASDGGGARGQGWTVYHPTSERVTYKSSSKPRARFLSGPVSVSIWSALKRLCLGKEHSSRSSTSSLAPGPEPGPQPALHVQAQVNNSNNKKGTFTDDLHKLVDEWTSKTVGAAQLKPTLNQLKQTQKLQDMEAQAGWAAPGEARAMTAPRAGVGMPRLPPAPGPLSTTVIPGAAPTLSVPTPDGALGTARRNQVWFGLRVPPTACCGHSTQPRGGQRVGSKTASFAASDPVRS

CC1=C(C#N)C(c2ccc3[nH]nc(C)c3c2)C(C#N)=C(C)N1 [BAY-474]
inactive: inhibition [1] 40% | inhibition [2] 2% | inhibition [3] 26% | inhibition [4] -3% | inhibition [5] 9% | inhibition [6] -3.35% | inhibition [7] 0% | inhibition [8] 9%

CC1=C(C#N)[C@@H](c2ccc3[nH]nc(C)c3c2)C(C#N)=C(c2ccc(Cl)cc2)N1 [BAY-827]
inactive: residual activity [9] 100% | residual activity [10] 100% | residual activity [11] 100% | residual activity [12] 100% | residual activity [13] 83.2% | residual activity [14] 100% | residual activity [15] 100% | residual activity [16] 100% | residual activity [17] 100% | residual activity [18] 86.5% | residual activity [19] 66.2% | residual activity [20] 90% | residual activity [21] 100% | residual activity [22] 100% | residual activity [23] 100% | residual activity [24] 100% | residual activity [25] 93.9% | residual activity [26] 100% | residual activity [27] 100% | residual activity [28] 100% | residual activity [29] 100% | residual activity [30] 100% | residual activity [31] 100% | residual activity [32] 100% | residual activity [33] 75.4% | residual activity [34] 100% | residual activity [35] 100% | residual activity [36] 100% | residual activity [37] 100% | residual activity [38] 100% | residual activity [39] 100%
